# In ChEMBL document CHEMBL6127076, “Scaffold hopping-driven optimization for the identification of NLRP3 inhibitors as potential gout therapeutics” (Eur J Med Chem, 2024):
# Assays:
# [1] = Inhibition of NLRP3 inflammasome pathway in human THP-1 cells assessed as inhibition of LPS/MSU-induced IL-1beta secretion
# [2] = test system: HEK-293T; assay: Cytotoxicity against human HEK293T cells assessed as cell viability at 50 uM measured after 24 hrs by CCK8 assay; format: toxicity, cell-based
# [3] = Aqueous solubility of the compound in pH 7.4 PBS buffer; format: physicochemical
# [4] = Plasma stability in human plasma assessed as compound remaining measured after 5 mins; format: ADME, cell-free; conditions: read-out: Stability
# [5] = Plasma stability in human plasma assessed as compound remaining measured after 15 mins; format: ADME, cell-free; conditions: read-out: Stability
# [6] = Plasma stability in human plasma assessed as compound remaining measured after 30 mins; format: ADME, cell-free; conditions: read-out: Stability
# [7] = Plasma stability in human plasma assessed as compound remaining measured after 60 mins; format: ADME, cell-free; conditions: read-out: Stability
# [8] = Plasma stability in human plasma assessed as compound remaining measured after 120 mins; format: ADME, cell-free; conditions: read-out: Stability
# [9] = Plasma stability in human plasma assessed as half life; format: ADME, cell-free
# [10] = Plasma stability in human plasma assessed as compound remaining measured immediately; format: ADME, cell-free; conditions: read-out: Stability
# [11] = target: T1, Cytochrome P450 1A2 (Homo sapiens, UniProt P05177); assay: Inhibition of CYP1A2 (unknown origin); format: ADME
# T1 sequence (P05177 whole entry): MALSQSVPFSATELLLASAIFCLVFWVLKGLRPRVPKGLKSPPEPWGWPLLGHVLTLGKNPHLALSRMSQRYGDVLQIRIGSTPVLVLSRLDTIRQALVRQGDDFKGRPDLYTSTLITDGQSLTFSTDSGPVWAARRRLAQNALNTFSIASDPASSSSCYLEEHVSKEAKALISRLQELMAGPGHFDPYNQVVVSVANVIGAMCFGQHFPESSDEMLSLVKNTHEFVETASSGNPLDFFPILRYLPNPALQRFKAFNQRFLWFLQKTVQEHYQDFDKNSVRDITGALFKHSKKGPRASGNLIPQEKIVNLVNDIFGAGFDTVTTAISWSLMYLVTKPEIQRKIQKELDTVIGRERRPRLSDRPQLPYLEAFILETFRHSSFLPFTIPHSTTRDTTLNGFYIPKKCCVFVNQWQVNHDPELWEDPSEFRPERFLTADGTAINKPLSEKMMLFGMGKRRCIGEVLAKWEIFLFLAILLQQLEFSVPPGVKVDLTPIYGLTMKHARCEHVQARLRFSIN
# [12] = target: Cytochrome P450 2C9 (Homo sapiens, UniProt P11712); assay: Inhibition of CYP2C9 (unknown origin); format: ADME
# [13] = target: Cytochrome P450 2C19 (Homo sapiens, UniProt P33261); assay: Inhibition of CYP2C19 (unknown origin); format: ADME
# [14] = target: T2, Cytochrome P450 3A4 (Homo sapiens, UniProt P08684); assay: Inhibition of CYP3A4 (unknown origin) using midazolam as substrate; format: ADME
# [15] = target: T2, Cytochrome P450 3A4; assay: Inhibition of CYP3A4 (unknown origin) using testosterone as substrate; format: ADME
# [16] = target: Cytochrome P450 2D6 (Homo sapiens, UniProt P10635); assay: Inhibition of CYP2D6 (unknown origin); format: ADME
# Chain of Cytochrome P450 2D6 (P10635 whole entry): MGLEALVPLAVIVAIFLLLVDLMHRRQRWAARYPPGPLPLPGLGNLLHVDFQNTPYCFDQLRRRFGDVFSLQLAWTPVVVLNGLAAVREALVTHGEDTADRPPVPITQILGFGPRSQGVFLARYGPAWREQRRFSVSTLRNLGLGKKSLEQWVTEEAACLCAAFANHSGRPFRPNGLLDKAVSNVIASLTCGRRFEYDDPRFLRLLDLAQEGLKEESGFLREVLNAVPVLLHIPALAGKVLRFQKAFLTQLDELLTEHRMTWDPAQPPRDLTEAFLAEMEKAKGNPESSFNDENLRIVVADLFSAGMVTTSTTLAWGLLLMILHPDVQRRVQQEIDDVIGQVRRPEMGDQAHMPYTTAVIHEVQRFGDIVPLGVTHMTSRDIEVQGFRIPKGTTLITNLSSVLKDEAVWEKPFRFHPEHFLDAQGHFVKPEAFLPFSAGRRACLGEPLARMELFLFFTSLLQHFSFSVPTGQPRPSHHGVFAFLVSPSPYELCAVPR
# Chain of Cytochrome P450 2C9 (P11712 whole entry): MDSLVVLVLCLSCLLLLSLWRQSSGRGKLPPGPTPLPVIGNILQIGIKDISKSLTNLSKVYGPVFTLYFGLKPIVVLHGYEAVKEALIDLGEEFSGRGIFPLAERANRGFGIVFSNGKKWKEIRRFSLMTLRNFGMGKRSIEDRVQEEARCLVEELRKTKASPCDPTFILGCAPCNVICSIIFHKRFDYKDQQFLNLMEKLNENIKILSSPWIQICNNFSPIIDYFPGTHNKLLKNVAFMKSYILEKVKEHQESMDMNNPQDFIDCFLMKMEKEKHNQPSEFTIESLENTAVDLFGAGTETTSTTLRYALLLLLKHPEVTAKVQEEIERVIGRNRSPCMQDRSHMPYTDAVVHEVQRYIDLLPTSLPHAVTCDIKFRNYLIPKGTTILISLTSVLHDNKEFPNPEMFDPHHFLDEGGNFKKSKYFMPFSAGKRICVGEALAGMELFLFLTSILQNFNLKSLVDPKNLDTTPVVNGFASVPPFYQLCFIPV
# T2 sequence (P08684 whole entry): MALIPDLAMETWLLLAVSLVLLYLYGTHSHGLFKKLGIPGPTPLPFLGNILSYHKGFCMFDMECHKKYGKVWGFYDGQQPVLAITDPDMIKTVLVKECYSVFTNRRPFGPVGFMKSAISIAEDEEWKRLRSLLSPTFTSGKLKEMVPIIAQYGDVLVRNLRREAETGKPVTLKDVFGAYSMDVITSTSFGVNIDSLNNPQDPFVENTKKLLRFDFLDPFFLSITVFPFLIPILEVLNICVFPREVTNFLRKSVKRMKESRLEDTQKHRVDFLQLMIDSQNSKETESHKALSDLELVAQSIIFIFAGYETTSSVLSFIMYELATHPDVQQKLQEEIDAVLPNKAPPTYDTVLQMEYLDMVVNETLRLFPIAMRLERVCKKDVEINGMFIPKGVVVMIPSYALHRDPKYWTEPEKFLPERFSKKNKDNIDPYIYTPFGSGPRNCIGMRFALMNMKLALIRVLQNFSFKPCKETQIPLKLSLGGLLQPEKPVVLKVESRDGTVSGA
# Chain of Cytochrome P450 2C19 (P33261 whole entry): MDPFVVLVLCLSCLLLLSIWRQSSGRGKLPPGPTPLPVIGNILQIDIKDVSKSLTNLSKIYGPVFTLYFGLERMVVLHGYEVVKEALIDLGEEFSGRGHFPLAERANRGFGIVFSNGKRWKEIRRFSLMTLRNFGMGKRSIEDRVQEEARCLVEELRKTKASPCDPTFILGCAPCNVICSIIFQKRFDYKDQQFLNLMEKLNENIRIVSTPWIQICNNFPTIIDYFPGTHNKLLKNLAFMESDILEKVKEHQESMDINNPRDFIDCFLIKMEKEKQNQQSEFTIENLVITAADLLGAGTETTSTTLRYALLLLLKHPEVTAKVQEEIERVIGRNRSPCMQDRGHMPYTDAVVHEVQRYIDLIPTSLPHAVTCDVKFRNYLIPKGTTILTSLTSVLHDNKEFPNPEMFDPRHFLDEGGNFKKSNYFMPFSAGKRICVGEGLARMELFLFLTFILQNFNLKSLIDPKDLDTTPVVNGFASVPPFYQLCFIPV
Compound,IC50 [1] [µM],solubility [3] [µM],remaining at 5 min [4] [%],remaining at 0.25 h [5] [%],remaining at 0.5 h [6] [%],remaining at 1 h [7] [%],remaining at 2 h [8] [%],half-life [9] [h],remaining at 0 min [10] [%],IC50 [11] [µM],IC50 [12] [µM],IC50 [13] [µM],IC50 [14] [µM],IC50 [15] [µM],IC50 [16] [µM],Activity [2]
COc1ccc(N2C(=O)C(C)(C)N(Cc3ccc(C)c(C)c3)C2=S)cc1,6.9,0.017,98.9,105,96.2,102,102,–,100,> 100,4.57,2.95,> 10,> 10,> 10,Toxic
COc1ccc(N2C(=O)C(C)(C)N(Cc3ccc(C)cc3)C2=S)cc1,> 20,–,–,–,–,–,–,–,–,–,–,–,–,–,–,–
COc1cccc(N2C(=O)C(C)(C)N(Cc3ccc(C)c(C)c3)C2=S)c1,> 20,–,–,–,–,–,–,–,–,–,–,–,–,–,–,–
c1ccc(-c2nc[nH]c2-c2ccccc2)cc1,–,13.6,–,–,–,–,–,–,–,–,–,–,–,–,–,–
CC1(C)C(=O)N(c2cc(C(F)(F)F)cc(C(F)(F)F)c2)C(=S)N1Cc1ccc(S(N)(=O)=O)c(F)c1,8.3,14,91.3,98.8,93.3,100,91.8,–,100,> 100,10.2,> 10,> 10,> 10,> 10,Toxic
COc1ccc(N2C(=O)C(C)(C)N(C(=O)c3ccccc3C(F)(F)F)C2=S)cc1,> 50,–,–,–,–,–,–,–,–,–,–,–,–,–,–,–
CC1(C)C(=O)N(c2ccc(Oc3ccccc3)cc2)C(=S)N1Cc1ccc(S(N)(=O)=O)c(F)c1,5.3,2.56,97.2,101,92.3,101,93.3,–,100,> 100,7.73,4.43,> 10,> 10,> 10,Toxic
C=C1C(=O)[C@]23[C@H](O)[C@H]1CC[C@H]2[C@@]12CO[C@]3(O)[C@@H](O)[C@@H]1C(C)(C)CC[C@@H]2O [ORIDONIN],1.9,–,–,–,–,–,–,–,–,–,–,–,–,–,–,–

# Continued, in another order:
IC50 [1] [µM],solubility [3] [µM],remaining at 5 min [4] [%],remaining at 0.25 h [5] [%],remaining at 0.5 h [6] [%],remaining at 1 h [7] [%],remaining at 2 h [8] [%],half-life [9] [h],remaining at 0 min [10] [%],IC50 [11] [µM],IC50 [12] [µM],IC50 [13] [µM],IC50 [14] [µM],IC50 [15] [µM],IC50 [16] [µM],Compound,Activity [2]
4.3,0.089,99.8,103,102,113,93.6,32.4,100,> 100,> 10,5.64,> 10,> 10,> 10,Cc1ccc(CN2C(=S)N(c3ccc(C(C)(C)C)cc3)C(=O)C2(C)C)cc1C,Toxic
–,0.012,112,106,23.9,4.34,3.67,0.338,100,5.2,4.65,6.87,> 10,> 10,> 10,COc1ccc(N2C(=O)/C(=C/c3ccccc3C(F)(F)F)SC2=S)cc1,–
> 20,–,–,–,–,–,–,–,–,–,–,–,–,–,–,CC(C)(C)c1ccc(N2C(=O)C(C)(C)N(Cc3ccc4ncoc4c3)C2=S)cc1,–
> 20,–,–,–,–,–,–,–,–,–,–,–,–,–,–,COc1ccc(N2C(=O)C(C)(C)N(Cc3ccc(-c4ccccc4C#N)cc3)C2=S)cc1,–
15.7,–,–,–,–,–,–,–,–,–,–,–,–,–,–,COc1ccc(N2C(=O)C(C)(C)N(Cc3ccc(C(C)C)cc3)C2=S)cc1,–
> 20,–,–,–,–,–,–,–,–,–,–,–,–,–,–,Cc1ccc(CN2C(=S)N(c3cccc(OCc4ccccc4)c3)C(=O)C2(C)C)cc1C,–
13.9,–,–,–,–,–,–,–,–,–,–,–,–,–,–,COc1ccc(CN2C(=S)N(c3ccc(C(C)(C)C)cc3)C(=O)C2(C)C)cc1F,–
10.1,0.032,99.2,96.6,104,105,97.3,299,100,> 100,6.15,1.4,> 10,> 10,> 10,COc1ccc(N2C(=O)C(C)(C)N(Cc3ccc(Br)c(C)c3)C2=S)cc1,Toxic
